These are literature values, as cited in article PMC4474874, “Effect of JAK Inhibitors on Release of CXCL9, CXCL10 and CXCL11 from Human Airway Epithelial Cells” (PLoS ONE, 2015).

Data set [1] relates to human T lymphocytes (JAK1/3). Details: method as in Coe et al., 25. The note with it: ref Coe et al., 25; read-out: IC50 IL-2-induced IFNγ release by human T lymphocytes (JAK1/3); cited from earlier work.
Data set [2] relates to human T lymphocytes (JAK1/2). Details: method as in Coe et al., 25. The note with it: ref Coe et al., 25; read-out: IC50 IL-12-induced IFNγ release by human T lymphocytes (JAK1/2); cited from earlier work.
For data set [3], the system named is MLK1. Further details: method as in Coe et al., 25. The note with it: ATP at the Km; ref Coe et al., 25; cited from earlier work.
The subject of data set [4] is MAP4K4. Further details: method as in Coe et al., 25. The note with it: ATP at the Km; ref Coe et al., 25; cited from earlier work.
Data set [5] deals with GSK3β. Further details: method as in Coe et al., 25. The note with it: ATP at the Km; ref Coe et al., 25; cited from earlier work.
Data set [6] deals with TAOK2. Details: method as in Coe et al., 25. The note with it: ATP at the Km; ref Coe et al., 25; cited from earlier work.
The test system of data set [7] is JAK3. Further details: method as in PMID 18094329. The note with it: read-out: IC50 against JAK3; cited from earlier work.
Data set [8] concerns AKT. Further details: method as in PMID 18094329. The note with it: inactive or IC50 >30μM; read-out: IC50 against AKT; cited from earlier work.
Data set [9] concerns CHK1. Further details: method as in PMID 18094329. The note with it: inactive or IC50 >30μM; read-out: IC50 against CHK1; cited from earlier work.
Data set [10] relates to GSK3b. Details: method as in PMID 18094329. The note with it: inactive or IC50 >30μM; read-out: IC50 against GSK3b; cited from earlier work.
Data set [11] relates to IKKb. Details: method as in PMID 18094329. The note with it: inactive or IC50 >30μM; read-out: IC50 against IKKb; cited from earlier work.
The subject of data set [12] is IKKi. Details: method as in PMID 18094329. The note with it: inactive or IC50 >30μM; read-out: IC50 against IKKi; cited from earlier work.
The subject of data set [13] is INSR. Details: method as in PMID 18094329. The note with it: inactive or IC50 >30μM; read-out: IC50 against INSR; cited from earlier work.
Data set [14] concerns MASK. Details: method as in PMID 18094329. The note with it: inactive or IC50 >30μM; read-out: IC50 against MASK; cited from earlier work.
The test system of data set [15] is PKCb. Details: method as in PMID 18094329. The note with it: inactive or IC50 >30μM; read-out: IC50 against PKCb; cited from earlier work.
Data set [16] concerns TaoK3. Details: method as in PMID 18094329. The note with it: inactive or IC50 >30μM; read-out: IC50 against TaoK3; cited from earlier work.
Data set [17] relates to chronic lymphocytic leukaemia cells. Details: method as in PMID 20716767. The note with it: cited from earlier work.

Regarding `CCc1cc(O)ccc1-c1ccc2c(-c3nc4ccccc4[nH]3)n[nH]c2c1` [PF1367550, 4-(3-(1H-benzo[d]imidazol-2-yl)-1H-indazol-6-yl)-3-ethylphenol], the IC50 in [1] was 14 nM; in data set [2], 45 nM; in [3] it was 54 nM; in data set [4], 60 nM; in [5] it was 617 nM; in data set [6] it was 781 nM.
`C[C@@H]1CCN(C(=O)N2CCCC2)C[C@@H]1N(C)c1ncnc2[nH]ccc12` [PF956980]: the IC50 in [7] was approximately 4 nM; in data set [8] it was more than 30000 nM; in data set [9] it was more than 30000 nM; in [10], more than 30000 nM; in data set [11], more than 30000 nM; in data set [12], more than 30000 nM. The IC50 in data set [13], in [14], in [15] and in [16] was more than 30000 nM in each case. Moreover, in data set [17], the “concentration effective against IL-4-induced cytotoxic resistance” value is ~ 0.3 μM.
